Test results: US10906913B2, “NMDA receptor modulators and uses thereof” (Northwestern University, priority 2008, dated 2021)
Entries after “also recorded” stand apart in the source; their conditions may differ. Like-named read-outs stand apart in the source and are kept apart here. Each block holds one molecule with its values, some of them ahead of it. Peptide text beside a SMILES is read from it.

How the values were obtained:
NMDA receptor [1] = molecular target: T1, NMDA receptor (Rattus norvegicus, UniProt P35439); settings: cited from earlier work
T1 construct: NMDA receptor-gated single neuron conductance (INMDA) in hippocampal CAI pyramidal neurons; from tissue; host or cells: in vitro hippocampal slices, CA1 pyramidal neurons

[2] = tested on: Schaffer collateral-CA1 synapses; settings: cited from earlier work
[3] = tested on: Schaffer collateral-CA1 synapses; settings: cited from earlier work; remark: listed apart in the source
[4] = tested on: Schaffer collateral-CA1 synapses; experiment: Long-term potentiation (LTP) at Schaffer collateral-CA1 synapses, in vitro hippocampal slices; type: cell-based; settings: for magnitude of LTP: high frequency stimulus; for magnitude / induction of LTP: concentration not given
From the text: (§1) The effects of the three compounds were examined on 1) NMDA receptor-gated single neuron conductance (INMDA) in hippocampal CAI pyramidal neurons and 2) the magnitude of long-term potentiation (LTP) and long term depression (LTD) at Schaffer collateral CA1 synapses, in in vitro hippocampal slices.

NMDA receptor [5] = molecular target: T1, NMDA receptor; experiment: NMDA receptor-gated single neuron conductance (INMDA) in hippocampal CA1 pyramidal neurons; type: cell-based; settings: for enhancement of INMDA compared among the tested compounds: comparison of compound B, AK-51, AK-52
From the text: as §1

[6] = tested on: Schaffer collateral-CA1 synapses; experiment: Long term depression (LTD) at Schaffer collateral-CA1 synapses, in vitro hippocampal slices; type: cell-based; settings: 1 μM; low frequency stimulus 2 Hz/10 min
From the text: as §1

Glutamate, AMPA = experiment: Binding assay, Glutamate, AMPA; parameters: species or system rat; settings: 10 μM
From the text: (§2) Table B depicts the results of binding assays against various targets with AK51: […]

[7] = molecular target: Glutamate, NMDA, Phencyclidine (Rattus norvegicus, UniProt P35439); experiment: Binding assay, Glutamate, NMDA, Phencyclidine
From the text: as §2

[8] = molecular target: Glutamate, Metabotropic, mGlus (Homo sapiens, UniProt P41594); experiment: Binding assay, Glutamate, Metabotropic, mGlus
Glutamate, Metabotropic, mGlus, sequence (P41594 21-1212): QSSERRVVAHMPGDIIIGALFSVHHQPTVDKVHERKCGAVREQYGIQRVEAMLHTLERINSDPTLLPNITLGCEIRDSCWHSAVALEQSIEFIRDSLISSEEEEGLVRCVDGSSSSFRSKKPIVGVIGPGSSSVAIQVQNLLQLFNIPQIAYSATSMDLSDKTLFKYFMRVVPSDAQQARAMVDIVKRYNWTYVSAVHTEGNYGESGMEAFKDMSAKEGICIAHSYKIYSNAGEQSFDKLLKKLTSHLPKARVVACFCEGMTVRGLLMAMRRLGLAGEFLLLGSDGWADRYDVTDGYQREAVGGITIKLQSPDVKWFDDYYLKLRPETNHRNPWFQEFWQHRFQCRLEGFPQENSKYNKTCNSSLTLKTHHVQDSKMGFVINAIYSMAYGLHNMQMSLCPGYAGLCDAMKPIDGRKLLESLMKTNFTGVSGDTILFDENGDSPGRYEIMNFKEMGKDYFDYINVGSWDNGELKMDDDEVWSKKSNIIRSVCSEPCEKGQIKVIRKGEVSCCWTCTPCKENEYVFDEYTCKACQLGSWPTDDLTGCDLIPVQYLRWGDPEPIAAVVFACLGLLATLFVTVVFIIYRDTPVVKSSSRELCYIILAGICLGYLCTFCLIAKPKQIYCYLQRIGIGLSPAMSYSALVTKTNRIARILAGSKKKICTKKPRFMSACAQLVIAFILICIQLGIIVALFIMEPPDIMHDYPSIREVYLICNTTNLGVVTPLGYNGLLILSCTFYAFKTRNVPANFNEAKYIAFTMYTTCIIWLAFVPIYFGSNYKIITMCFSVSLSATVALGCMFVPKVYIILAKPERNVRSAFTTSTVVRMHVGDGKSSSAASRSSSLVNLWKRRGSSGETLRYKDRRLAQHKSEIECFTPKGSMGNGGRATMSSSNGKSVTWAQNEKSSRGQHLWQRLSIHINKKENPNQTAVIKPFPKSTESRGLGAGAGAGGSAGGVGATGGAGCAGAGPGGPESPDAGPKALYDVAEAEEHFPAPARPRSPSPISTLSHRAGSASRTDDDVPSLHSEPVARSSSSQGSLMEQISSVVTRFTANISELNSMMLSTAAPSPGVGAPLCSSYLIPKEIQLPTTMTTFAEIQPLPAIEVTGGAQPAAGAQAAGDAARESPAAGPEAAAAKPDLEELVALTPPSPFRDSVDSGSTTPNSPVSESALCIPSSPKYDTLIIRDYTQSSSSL
From the text: as §2

[9] = tested on: Glycine, Strychnine-Sensitive; experiment: Binding assay, Glycine, Strychnine-Sensitive; parameters: species or system rat; settings: 10 μM
From the text: as §2

[10] = molecular target: Glutamate, NMDA, Polyamine (Rattus norvegicus, UniProt P35439+Q00960); experiment: Binding assay, Glutamate, NMDA, Polyamine
Glutamate, NMDA, Polyamine, sequence (Q00960 27-1482, other chains not shown): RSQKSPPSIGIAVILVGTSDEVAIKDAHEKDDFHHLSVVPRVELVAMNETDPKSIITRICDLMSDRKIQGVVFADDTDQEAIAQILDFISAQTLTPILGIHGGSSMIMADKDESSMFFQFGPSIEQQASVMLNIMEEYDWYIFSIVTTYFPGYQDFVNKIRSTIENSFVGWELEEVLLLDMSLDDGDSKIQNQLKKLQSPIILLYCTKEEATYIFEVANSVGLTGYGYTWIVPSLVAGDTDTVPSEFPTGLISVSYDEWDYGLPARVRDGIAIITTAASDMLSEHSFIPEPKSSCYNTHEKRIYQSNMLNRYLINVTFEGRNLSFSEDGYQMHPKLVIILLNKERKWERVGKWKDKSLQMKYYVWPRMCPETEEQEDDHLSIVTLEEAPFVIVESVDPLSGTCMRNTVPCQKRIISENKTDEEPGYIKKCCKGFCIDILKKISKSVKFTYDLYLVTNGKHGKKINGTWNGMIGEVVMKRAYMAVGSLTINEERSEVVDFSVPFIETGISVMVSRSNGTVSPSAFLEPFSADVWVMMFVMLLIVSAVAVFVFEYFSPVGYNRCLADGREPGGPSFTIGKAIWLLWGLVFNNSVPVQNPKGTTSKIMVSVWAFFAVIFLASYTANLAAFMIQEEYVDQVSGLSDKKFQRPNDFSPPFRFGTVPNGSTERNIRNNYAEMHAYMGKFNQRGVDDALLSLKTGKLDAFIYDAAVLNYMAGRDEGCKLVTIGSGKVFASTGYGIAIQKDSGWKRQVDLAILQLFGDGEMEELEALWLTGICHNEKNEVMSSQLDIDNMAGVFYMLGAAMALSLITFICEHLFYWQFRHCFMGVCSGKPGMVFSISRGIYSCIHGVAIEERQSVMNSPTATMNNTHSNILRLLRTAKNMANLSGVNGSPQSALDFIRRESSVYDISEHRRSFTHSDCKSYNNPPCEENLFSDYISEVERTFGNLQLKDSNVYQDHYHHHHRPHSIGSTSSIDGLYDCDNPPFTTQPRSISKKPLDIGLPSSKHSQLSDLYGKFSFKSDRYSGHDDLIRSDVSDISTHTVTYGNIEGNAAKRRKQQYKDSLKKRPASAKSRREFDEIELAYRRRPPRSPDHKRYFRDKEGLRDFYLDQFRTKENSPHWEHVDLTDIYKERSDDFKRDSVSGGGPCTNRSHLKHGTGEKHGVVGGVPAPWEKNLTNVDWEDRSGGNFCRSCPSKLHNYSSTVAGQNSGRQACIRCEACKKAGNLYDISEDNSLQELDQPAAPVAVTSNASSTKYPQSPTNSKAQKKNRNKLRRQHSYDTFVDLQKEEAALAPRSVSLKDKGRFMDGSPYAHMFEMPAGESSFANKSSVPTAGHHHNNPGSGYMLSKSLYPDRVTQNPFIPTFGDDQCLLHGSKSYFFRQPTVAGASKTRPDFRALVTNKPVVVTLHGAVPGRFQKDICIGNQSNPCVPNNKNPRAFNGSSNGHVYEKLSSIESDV
From the text: as §2

rats = experiment: Alternating T-maze learning task; type: in vivo, rat; settings: 60 min before testing
Procedure: Male 3 month old Fisher 344 X Brown Norway F1 cross rats (FBNF1) were used for this study. The t-maze was constructed with arms (45 cm long×10 cm wide×10 cm high) made of black Plexiglas enclosing the maze. Two plastic bottle caps, lined with wire mesh, were secured to the end of each goal arm in which the food reward (Cheerios, 100 mg/piece) was placed. Before the start of training, animals were gradually deprived of food to approximately 85% of their free feeding weight. On three successive days before the start of training, animals were habituated to the t-maze with food located throughout the maze. […] On the subsequent testing day, animals were given injections of AK51 (0.3, 1, 3, 10, 30 mg/kg p.o.), or DMSO vehicle (1 mg/ml; Sigma, Saint Louis Mo.) in a blind manner via gastric gavage (4″, 16-ga; Braintree Scientific, Braintree Mass.) 60 min prior to the start of testing (n=8-9 per group. On the first trial of testing, both arms were baited with food and for the subsequent 20 trials only alternating choices (opposite of the animal's previous choice) were rewarded (˜30 sec inter-trial interval). The number of trials to criterion (5 consecutive correct choices) was calculated for each animal. Data was analyzed by ANOVA followed by Fisher PLSD post hoc tests comparing individual drug doses to vehicle (α=0.05). […]

Glutamate, Non-Selective = experiment: Binding assay, Glutamate, Non-Selective; parameters: species or system rat; settings: 10 μM
From the text: as §2

Glutamate, NMDA, Agonism = experiment: Binding assay, Glutamate, NMDA, Agonism; parameters: species or system rat; settings: 10 μM
From the text: as §2

Glutamate, Kainate = experiment: Binding assay, Glutamate, Kainate; parameters: species or system rat; settings: 10 μM
From the text: as §2

Glutamate, NMDA, Glycine = Glutamate, NMDA, Glycine (Rattus norvegicus, UniProt P35439); experiment: Binding assay, Glutamate, NMDA, Glycine
From the text: as §2

Structure (SMILES): C[C@@H](O)[C@H](N)C(=O)N1CCC[C@H]1C(=O)N1CCC[C@H]1C(=O)N[C@H](C(N)=O)[C@@H](C)O [GLYX-13] (H-TPPT-NH2)
- burst INMDA (NMDA receptor [1]; 100 μM): reducing
- burst-activated INMDA (NMDA receptor [1]; 1-10 μM): enhancement
- single pulse evoked INMDA (NMDA receptor [1]; 1-10 μM): reducing
- INMDA mediated by NMDA receptors containing NR2A/B subunits (NMDA receptor [1]): selectively enhance
- LTP ([2]; 100 μM): reducing
- LTP ([2]; 1-10 μM): enhancement
- simultaneous effect on LTP and LTD [2]: simultaneously increase LTP and reduce LTD
- LTD ([3]; 100 μM): no longer affected
- LTD ([3]; 1-10 μM): reducing

- single shock evoked INMDA (NMDA receptor [5]; 100 nM): mild enhancement
- single shock evoked INMDA (NMDA receptor [5]; 100 nM, listed as AK52): enhancement
- single shock evoked INMDA (NMDA receptor [5]; 1 μM): significant reduction
- single shock evoked INMDA (NMDA receptor [5]; 1 μM, listed as AK52): marked reduction
- enhancement of INMDA compared among the tested compounds (NMDA receptor [5]): weakest enhancer
Structure (SMILES): CC(O)C(NC(=O)OCc1ccccc1)C(=O)N1CC2(CCCN2C(=O)OCc2ccccc2)C1=O (stereo not drawn) [AK-52]
- magnitude of LTP ([4]; 100 nM): enhancement
- magnitude of LTP ([4]; 1 μM): slight, but significant, reduction
- magnitude / induction of LTP [4]: selectively enhances
- LTD [6]: without altering; also recorded: did not affect

- NMDA current (normalized pharmacologically-isolated NMDA receptor-gated current) (NMDA receptor [5]; 100 nM and 1 μM, 20 min bath application, whole-cell recording): enhances
- single shock evoked INMDA (NMDA receptor [5]; 1 μM): enhancement
- single shock evoked INMDA (NMDA receptor [5]; 1 μM, listed as NRX-10,051): enhanced
- % Inhibition (Glutamate, AMPA): −8%
- inhibition at 10 µM [7]: -5%
- inhibition at 10 µM [8]: -7%
- % Inhibition [9]: 4%
- inhibition at 10 µM [10]: -14%
- % Inhibition (Glutamate, Non-Selective): −10%
- % Inhibition (Glutamate, NMDA, Agonism): 27%
- % Inhibition (Glutamate, Kainate): −13%
- inhibition at 10 µM (Glutamate, NMDA, Glycine): -6%
Structure (SMILES): O=C1NCC12CCCN2 (stereo not drawn) [AK-51]
- magnitude of LTP ([4]; 100 nM): Enhancement
- magnitude of LTP ([4]; 1 μM, listed as AK5151): Enhancement
- magnitude of LTP ([4]; 1 μM, listed as NRX-10,051): doubled the magnitude
- magnitude / induction of LTP [4]: enhances
- single shock evoked INMDA (NMDA receptor [5]; 100 nM, listed as NRX-10,051): enhanced; also recorded: marked enhancement
- enhancement of INMDA compared among the tested compounds (NMDA receptor [5]): less potency than compound B; also recorded: smaller in magnitude
- LTD [6]: not altering
- learning behavior in the T-maze test (rats; 1.0 mg/kg by mouth, P<0.001): statistically significant enhancement
- learning behavior in the T-maze test (rats; 3.0 mg/kg by mouth, P<0.01): statistically significant enhancement
